Organism: Homo sapiens
Assay: Compound was tested for inhibitory activity against collagen induced platelet aggregation
Type: functional

SMILES	IC50 [nM]
O=C(O)COc1cccc2c1C[C@H]1C[C@@H](O)[C@H](C#C[C@@H](O)C3CCCCC3)[C@H]1C2	2.9
O=C(O)COc1cccc2c1C[C@H]1C[C@@H](O)[C@H](C#C[C@@H](O)C3CCCCC3)[C@@H]1C2	52

Source: ChEMBL document CHEMBL1125947, “Triply-convergent syntheses of two homochiral arene-fused prostacyclin analogs related to U68,215” (Bioorg Med Chem Lett, 1991)
